In data set [1] the target is T1, ALDH16 (monofunctional aldehyde dehydrogenase, GI 150018649, SEQ ID NO: 16; Strep-ALDH16) (Clostridium diolis, UniProt A0AAV3W6M8).
T1 sequence (A0AAV3W6M8 1-468): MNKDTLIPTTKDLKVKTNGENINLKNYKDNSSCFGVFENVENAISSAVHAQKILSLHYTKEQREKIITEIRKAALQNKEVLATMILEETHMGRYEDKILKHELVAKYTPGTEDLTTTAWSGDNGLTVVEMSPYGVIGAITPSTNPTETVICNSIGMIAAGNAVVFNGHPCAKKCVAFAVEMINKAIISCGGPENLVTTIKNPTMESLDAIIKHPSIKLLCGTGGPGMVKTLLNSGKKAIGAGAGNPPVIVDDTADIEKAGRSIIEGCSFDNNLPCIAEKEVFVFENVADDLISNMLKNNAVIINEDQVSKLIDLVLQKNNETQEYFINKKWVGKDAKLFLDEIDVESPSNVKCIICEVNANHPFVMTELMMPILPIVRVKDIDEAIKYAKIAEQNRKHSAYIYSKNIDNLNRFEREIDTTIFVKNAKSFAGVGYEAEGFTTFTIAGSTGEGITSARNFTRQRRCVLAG
In words: In vitro kinetics of aldehyde/alcohol dehydrogenases, oxidation of NADH at 340 nm (purified Strep-ALDH16). Format: biochemical. The procedure:
(§1) Activity of ALDH proteins was measured by monitoring the oxidation of NADH at 340 nm at 30° C. The assay mixture (400 μL) contained 100 μM NADH in 100 mM Tris 1 mM DTT pH 7.5. The reaction was initiated by the addition of substrate. Kinetic parameters (kcat, KM) were determined by fitting the data using Microcal Origin to the equation: vo=vmax [S]/(KM+[S]), where v is the initial rate and [S] is the substrate concentration. Data are reported as mean±s.e. (n=3) unless otherwise noted with standard error derived from the nonlinear curve fitting. Error bars on graphs represent mean±s.d. (n=3). Error in kcat/KM is calculated by propagation of error from the individual kinetic parameters.
(§2) To further explore the potential for expressing monofunctional aldehyde and alcohol dehydrogenases in host cells for the production of alcohols, various aldehyde and alcohol dehydrogenases were purified and isolated to investigate their in vitro kinetic behavior with various C4 and C2 substrates. In particular, the monofunctional aldehyde dehydrogenase identified in FIG. 3 above (GI 150018649, also referred to as ALDH16) was purified (FIG. 4A and FIG. 4B) and the in vitro kinetic behavior of a purified Strep-ALDH16 protein with various C4 and C2 substrates was tested.

In data set [2] the target is T2, AdhE2-ADH (alcohol dehydrogenase domain of bifunctional AdhE2, wild type, GI 499193180, SEQ ID NO: 41) (Clostridium acetobutylicum, UniProt Q9ANR5).
T2 construct: alcohol dehydrogenase activity (C-terminal domain) measured
T2 sequence (Q9ANR5 1-858): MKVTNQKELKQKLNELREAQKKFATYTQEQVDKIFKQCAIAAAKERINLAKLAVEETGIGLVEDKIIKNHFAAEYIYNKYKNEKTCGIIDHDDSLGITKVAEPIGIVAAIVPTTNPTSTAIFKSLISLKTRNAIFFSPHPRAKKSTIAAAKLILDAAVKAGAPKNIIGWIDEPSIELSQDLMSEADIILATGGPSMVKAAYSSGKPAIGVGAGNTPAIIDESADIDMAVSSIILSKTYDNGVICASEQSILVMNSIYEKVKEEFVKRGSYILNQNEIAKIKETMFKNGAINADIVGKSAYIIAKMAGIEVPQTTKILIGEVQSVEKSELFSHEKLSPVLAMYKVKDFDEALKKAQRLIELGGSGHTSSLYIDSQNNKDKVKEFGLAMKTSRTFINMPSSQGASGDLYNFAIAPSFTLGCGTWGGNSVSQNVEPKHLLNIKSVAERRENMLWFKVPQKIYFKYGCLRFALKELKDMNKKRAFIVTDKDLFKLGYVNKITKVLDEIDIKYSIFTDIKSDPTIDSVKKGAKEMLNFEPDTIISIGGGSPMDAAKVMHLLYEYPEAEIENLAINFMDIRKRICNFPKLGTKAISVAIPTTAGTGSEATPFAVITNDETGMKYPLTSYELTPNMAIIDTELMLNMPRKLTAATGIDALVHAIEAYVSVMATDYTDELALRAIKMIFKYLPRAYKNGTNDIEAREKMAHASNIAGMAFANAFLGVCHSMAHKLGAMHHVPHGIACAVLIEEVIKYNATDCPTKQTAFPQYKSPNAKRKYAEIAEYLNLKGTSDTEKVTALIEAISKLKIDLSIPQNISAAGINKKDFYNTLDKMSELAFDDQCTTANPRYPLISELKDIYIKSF
In words: In vitro kinetics of aldehyde/alcohol dehydrogenases, oxidation of NADH at 340 nm (alcohol dehydrogenase domain of AdhE2). The class given is biochemical. The procedure: as §1, §2

For data set [3], the target named is T3, AdhE2-ALDH (aldehyde dehydrogenase domain of bifunctional AdhE2, wild type, GI 499193180, SEQ ID NO: 41) (Clostridium acetobutylicum, UniProt Q9ANR5).
T3 sequence (Q9ANR5 1-858): T2 sequence (Q9ANR5 1-858)
Kind of data set: In vitro kinetics of aldehyde/alcohol dehydrogenases, oxidation of NADH at 340 nm (aldehyde dehydrogenase domain of AdhE2).

Substrate in data set [4]: CC=O
Kind of data set: In vitro kinetics of aldehyde/alcohol dehydrogenases, oxidation of NADH at 340 nm (alcohol dehydrogenase domain of AdhE2). The class given is biochemical. Particulars: other: 100 μM NADH, 100 mM Tris, 1 mM DTT, pH 7.5, 30° C., mean±s.e. (n=3). The protocol:
as §1, §2

Substrate in data set [5]: CCCC=O
Described as above. Particulars: other: 100 μM NADH, 100 mM Tris, 1 mM DTT, pH 7.5, 30° C., mean±s.e. (n=3). Format: biochemical. The procedure:
as §1, §2

Data set [6] deals with butanol production pathway. In words: Butanol and ethanol production in E. coli MC1.24 (quintuple KO) with bifunctional or monofunctional dehydrogenases (FIG. 5). The class given is cell-based. The settings on record: E. coli MC1.24, FIG. 5. The text has this: FIG. 5 illustrates genetically engineered improvement of a butanol production pathway composed of monofunctional aldehyde and alcohol dehydrogenases. The fuel titer of either butanol or ethanol in E. coli cells expressing the biosynthetic pathway shown in FIG. 6A with various particular alcohol and/or aldehyde dehydrogenases is shown. Specifically, E. coli MC1.24 (quintuple KO) was transformed with pT533-phaA.HBD, pBBR2-aceE.F.lpd and 1: pCWO.trc-ter-adhE2, 2: pCDF3-aldh16, 3: pCWori-ter-aldh16.CaADH, or 4: pCWO.trc-ter-aldh16.CaADH as indicated.
. The cultures were grown at 37° C. in a rotary shaker (200 r.p.m.) and induced with IPTG (1.0 mM) at OD600=0.35-0.45. At this time, the growth temperature was reduced to 30° C., and the culture flasks were sealed with Parafilm M (Pechiney Plastic Packaging) to prevent product evaporation for aerobic cultures. Anaerobic cultures were sealed and the headspace was sparged with argon for 5 minutes immediately follow induction. Aerobic cultures were unsealed for 10 to 30 min every 24 h then resealed with Parafilm M, and additional glucose (1% (w/v)) was added 1 day post-induction. Samples were quantified after 3 d of cell culture.
Samples (2 ml) were removed from cell culture and cleared of biomass by centrifugation at 20,817 g for 2 min using an Eppendorf 5417R centrifuge. The supernatant or cleared medium sample was then mixed in a 9:1 ratio with an aqueous solution containing the isobutanol internal standard (10,000 mg l^−1). These samples were then analyzed on a Trace GC Ultra (Thermo Scientific) using an HP-5MS column (0.25 mm×30 m, 0.25 μM film thickness, J & W Scientific). The oven program was as follows: 75° C. for 3 min, ramp to 300° C. at 45° C. min^−1, 300° C. for 1 min. n-Butanol was quantified by flame ionization detection (FID) (flow: 350 ml min^−1 air, 35 ml min^−1 H2 and 30 ml min^−1 helium). Samples containing n-butanol levels below 500 mg 1^−1 were requantified after extraction of the cleared medium sample or standard (500 μl) with toluene (500 μl) containing the isobutanol internal standard (100 mg 1^−1) using a Digital Vortex Mixer (Fisher) for 5 min set at 2,000. The organic layer was then quantified using the same GC parameters with a DSQII single-quadrupole mass spectrometer (Thermo Scientific) using single-ion monitoring (m/z 41 and 56) concurrent with full scan mode (m/z 35-80). Samples were quantified relative to a standard curve of 2, 4, 8, 16, 31, 63, 125, 250, 500 mg 1^−1 n-butanol for MS detection or 125, 250, 500, 1,000, 2,000, 4,000, 8,000 mg 1^−1 n-butanol for FID detection. Standard curves were prepared freshly during each run and normalized for injection volume using the internal isobutanol standard (100 or 1,000 mg 1^−1 for MS and FID, respectively). […]

Where [7] appears, read: 100 μM NADH, 100 mM Tris, 1 mM DTT, pH 7.5, 30° C., mean±s.e. (n=3).

In the case of `CC(=O)SCCNC(=O)CCNC(=O)[C@H](O)C(C)(C)COP(=O)(O)OP(=O)(O)OC[C@H]1O[C@@H](n2cnc3c(N)ncnc32)[C@H](O)[C@@H]1OP(=O)(O)O` [acetyl-CoA], the “higher KM for acetyl-CoA” value in data set [1] (compared with ALDH domain of AdhE2) stood at 5 fold.
Consider `CC=O` [acetaldehyde], for which the catalytic constant (kcat) in data set [2] (setting [7]) came to 5.6 ± 0.1 s⁻¹. Also, the “preference for acetaldehyde over butyraldehyde” value in data set [2] (from Table 4) was 1.7 fold.
Take `CCCC(=O)SCCNC(=O)CCNC(=O)[C@H](O)C(C)(C)COP(=O)(O)OP(=O)(O)OC[C@H]1O[C@@H](n2cnc3c(N)ncnc32)[C@H](O)[C@@H]1OP(=O)(O)O` [butyryl-CoA]: the kcat in data set [1] (setting [7]) was found to be 0.11 ± 0.01 s⁻¹; in data set [3] (setting [7]), 1.2 ± 0.1 s⁻¹. In data set [1] (from Table 4), the “preference (specificity) for butyryl-CoA over acetyl-CoA” value turned out to be 73 fold. Besides, the “preference for butyryl-CoA over acetyl-CoA” value in data set [3] (from Table 4) came out at 8.5 fold.

B1: AdhE2-ADH (alcohol dehydrogenase domain of bifunctional AdhE2, wild type, GI 499193180, SEQ ID NO: 41) (Clostridium acetobutylicum) (protein)
chain: T2 sequence (Q9ANR5 1-858)
notes: alcohol dehydrogenase activity (C-terminal domain) measured
As for B1, in data set [4], the Michaelis constant (Km) was found to be 4.5 ± 0.3 mM. Further, in data set [5], the Km is 4 ± 0.4 mM, the turnover number (kcat) stood at 2.9 ± 0.1 s⁻¹ and the kcat/Km was found to be 700 ± 20 M⁻¹ s⁻¹.

B2: AdhE2: bifunctional alcohol and aldehyde dehydrogenase, wild-type AdhE2 (protein, listed as Clostridium acetobutylicum)
chain: T2 sequence (Q9ANR5 1-858)
In data set [6], B2 showed a butanol production of 4.5 g/L and an ethanol production of 3 g/L.

Source of the values: patent publication US20180291353A1, “MONOFUNCTIONAL ALDEHYDE AND ALCOHOL DEHYDROGENASES FOR PRODUCTION OF FUELS AND COMMODITY CHEMICALS” (The Regents of the University of California, priority 2015, published 2018).
